One series concerns plaque formation. As to conditions: Cherny et al. 2001; cited from earlier work.
For series [1] the following is noted: Phase II, similar dosage, with B12 supplementation; cited from earlier work.
In series [2] the test system is MPTP-induced oxidative stress. Description: SN GSH levels after MPTP. As to conditions: CQ pretreated animals, 24 hrs after MPTP, n=6. The class given is in vivo, mouse. The protocol:
Following MPTP or saline injection, GSH levels were measured in the SN by the method of Griffith (Griffith (1980) Anal. Biochem. 106; 207-212).

The subject of the next series is monoamine oxidase-B. Description: MAO-B activity in brain homogenates. The note with it: CQ-fed, n=4. It is filed as in vivo, mouse. The protocol: Brain homogenates were analyzed by the toulene extraction method using 10 μM 14-C labeled PEA as substrate (NEN, […]) as previously described (Wei et al. (1996) J. Neurosci. Res. 46: 666-673; Wei et al. (1997) J. Neurosci. Res. 50: 618-626). Values are reported as cpm/μg protein.

Series [3] is described as follows: Total SN iron content by mass spectrometry and MRI in CQ-fed mice. It is filed as in vivo, mouse. As to conditions: CQ 30 mg/kg daily oral gavage, 8 weeks, C57B1 mice. How it is done: Mice were housed according to standard animal care protocols, fed ad libitum, kept on a 12-hr light/dark cycle and maintained in a pathogen-free environment in the Buck Institute Vivarium. Animals used for studies were young adults (2-6 months of age). […] For CQ studies, C57B1 mice were obtained from Jackson Labs and randomized for therapy trials. CQ was suspended in 0.05% carboxymethylcellulose (Sigma) and delivered via oral gavage at a daily dosage of 30 mg/kg as previously described for a period of 8 weeks (Cherny et al. (2001) Neuron 30: 665-676); controls received vehicle alone.
MRI studies were performed using a Bruker AMX500 11.7 tesla MRI system as previously described (Gilissen et al. (1998) Am. J. Primatol. 45: 291-299). Brains were fixed as described above and MRI performed in the coronal plane. Comparisons of SN hypointensity (dark area) on T2-weighted MR samples encompassing SNc, SNr, and red nucleus were performed (IPLab Spectrum, Scientific Image Processing from Scanalytics, Inc.)(Morgan et al., 1998). Intensity was normalized using cortical white matter as control.
SN was dissected, snap frozen in liquid nitrogen, lypholized and dry weight/tissue measured. Preweighed lypholized samples were next taken up in 0.1 ml of concentrated nitric acid (Aristar, BDH) and allowed to digest overnight. […]

Series [4] in a line: Open field analysis of spontaneous motor activity. The class given is in vivo, mouse. The note with it: mice fed CQ up to 8 weeks vs. saline-fed, n=8. How it is done: 6-8 mice in each category were tested. Behavioral parameters were monitored in a Coulbourn Instrument Tru Scan activity monitor. Motor activities were recorded every 100 ms for a 10 minute period. Tru Scan 99 software was used to generate experimental protocols and to acquire and store the data. The data was exported to EXCEL and analyzed via one way ANOVA.

For series [5] the following is noted: Yassin et al. 2000; cited from earlier work.
The subject of another series is MPTP-induced toxicity. The series is described as follows: Striatal dopamine, DOPAC and HVA by HPLC after MPTP. It is filed as in vivo, mouse. The protocol:
(§1) Animals were injected with either 15 mg/kg body weight MPTP or saline every 2 hrs, 4 doses. Dopamine, DOPAC, and HVA or MPP+ from dissected striata were analyzed by I-PLC using a 5 micrometer C-18 reverse phase column and precolumn (Brownlee Labs) followed by electrochemical detection with a glassy carbon electrode (Klivenyi et al. (2000) J. Neurosci. 20: 1-7).

The subject of series [6] is MPTP-induced dopaminergic SN cell loss. Description: Stereological TH+ SN neuron counts after MPTP. It is filed as in vivo, mouse. How it is done: Neuronal counts were performed on TH+ positive SN neurons using the unbiased dissector method (West (1993) Neurobiol. Aging 14: 275-285). Fixed coronal brain sections (40 μm) were immunostained with TH antibody (1:500 dilution, Chemicon), coverslipped in aqueous medium and TH+ cells counted from a total of 15-20 sections in each field per brain (i.e. every second section) at a magnification of 100× using the optical fractionator approach.
as §1

For series [7], the system named is MPTP-mediated oxidative stress. Description: Slot blot of 4-HNE-protein conjugates and protein carbonyls in SN after MPTP. The class given is in vivo, mouse. The note with it: CQ pretreated animals, 24 hrs after MPTP, n=6. How it is done:
SN were dissected and homogenized in 10 mM HEPES-KOH, pH 7.2, 2 mM EDTA, 0.1% CHAPS, 5 mM dithiothreitol (DTT), 1 mM phenylmethylsulfonyl fluoride, 10 μg/ml pepstatin A, 10 μg/ml aprotinin, and 20 μg/ml leupeptin (Nicholson et al. (1995) Nature 376: 37-43). 15 μg of total protein from each sample was either run on a 15% SDS-PAGE gel (BioRad) and transferred to nitrocellulose membrane or directly slotted onto membrane. […] Autoradiography was performed with enhanced chemiluminescence (Amersham Pharmacia). For 4HNNE-protein conjugates and protein carbonyls, relative optical band density were quantified using a Chemilmager 5500 (Alpha Innotech Corporation). Reported values are the results of three independent experiments.

For series [8] the following is noted: lipophilic; cited from earlier work.
For series [9] the following is noted: mouse, in vivo; cited from earlier work.

The source of these data is patent publication US20040101521A1, “Iron sequestration or elimination to reduce neurodegeneration or Parkinsons disease progression” (The Buck Institute for Research on Aging, priority 2002, published 2004).

For the molecule `Oc1c(I)cc(Cl)c2cccnc12` [CQ, 5-chloro-7-iodo-8-hydroxyquinoline], the “Plaque formation and behavioral declines in AD transgenic mouse model” value with plaque formation is “inhibit plaque formation and accompanying behavioral declines”. Further, the “Adverse effects attributable to CQ administration” value in series [1] is reported as “No adverse effects”. Also, the “Change in SN GSH following MPTP” value in series [2] is “no significant changes”. Also, the MAO-B activity in the series on monoamine oxidase-B was determined as 4500±950 cpm/μg protein. Moreover, the “Reduction of total SN iron levels, CQ-fed vs. saline-fed animals” value in series [3] is given as “approximately 30%”. Also, the “Adverse behavioral effects in open field tests” value in series [4] is listed as “no significant signs of adverse behavioral effects”. Besides, in series [5], the “Depletion in systemic iron levels” value was “does not result in depletion”; the “Levels of brain and serum vitamin B12” value is on record as “lower levels”. The “Difference in striatal dopamine levels, saline vs. CQ-fed” value in the series with MPTP-induced toxicity (absence of MPTP treatment) is recorded as “No significant difference”. For the same molecule, the “Loss of striatal dopamine following MPTP” value in the series with MPTP-induced toxicity (animals pretreated with CQ, 7 days after MPTP) stood at 41%. Also, the “Decrease in SN TH+ cell numbers following MPTP” value in series [6] (CQ-fed animals, 7 days after MPTP) was found to be 25%. In addition, the “SN TH+ cell numbers” value in series [6] (CQ-fed, MPTP-treated, n=5) is recorded as 11,462±915. In series [7], the “Change in 4-HNE-protein conjugates in SN following MPTP” value is “no significant changes” and the “Change in protein carbonyl levels in SN following MPTP” value is listed as “no significant changes”. Moreover, in series [8], the Blood-brain barrier passage entry is “freely crosses the blood-brain barrier”. In series [9], the “Toxicity of the compound in mice” value is on record as “lack of toxicity”.
